Results from article PMC11344821 (Scientific Reports, 2024).
Converted amounts (≈) assume the structure as drawn.

How the values were obtained:
[1] = Particle size analysis by laser diffraction; conditions: for Particle size D10 / Particle size D50 / Particle size D90 / Particle size D99 / Volume mean diameter (VMD): laser diffraction, dry dispersion 3 bar, n = 3
Description: Laser diffraction was employed to measure particle size using a Sympatec HELOS/BR particle size analyser equipped with a RODOS dry dispersing system with VIBRI/I feeder (Clausthat-Zellerfield, Germany). Approximately 0.5g of sample was placed on to the VIBRI/L feeder tray and dispersed through a RODOS disperser with 3 bars of pressure. The volume mean diameter (VMD) of each sample was detected on the HELOS/BR set at a measuring range of 0–175 µm. All powders were measured in triplicate (n = 3), and the software calculate the 10% (D10), median (D50), 90% (D90) particle sizes and the volume mean diameter (VMD).
Milled samples were prepared using a Fritsch Pulverisette 7 planetary ball mill (Idar-Oberstein, Germany). Powders were accurately weighed according to the BPR. The samples were transferred into agate vials (45 cm^3 Volume) along with 8 agate balls (10mm diameter). The vials were then sealed with a plastic ring to prevent atmospheric contamination.

[2] = cited from earlier work
[3] = tested on: Staphylococcus aureus NCTC 10788; test: Minimum lethal concentration (MLC), sub-culture on TSA plates; type: cell-based; conditions: S. aureus NCTC 10788; tubes with no turbidity plated on TSA, overnight 37 °C; lowest concentration with no colony formation; listed as Control
Description: Overnight cultures of S. aureus were grown by inoculating a bacterial colony in 10 mL sterile TSB, incubated overnight at 37 °C in a shaking incubator. The overnight culture (1 × 10^9 bacterial cells/mL) was 100 folds diluted to achieve a concentration of 1 × 10^7 bacterial cells/mL.
10 sterile tubes were labelled from 1 to 10, followed by aseptic transfer of 5 mL of sterile TSB into each tube. […] 5 mL solution from tube 1 was then aseptically added to 5 mL TSB in tube 2, and thoroughly mixed and vortexed. This process was repeated for tubes 3–8. Tubes 9 and 10 were used as positive and negative controls, respectively. Once the process of dilution was completed, 100 µL from the 100 folds diluted S. aureus overnight culture was aseptically transferred into tunes 1–9, and incubated at 37 °C in a static incubator for 24 h. […] MICs were taken as the lowest concentrations with no turbidity (no visible bacterial growth).
Following this, the contents from the tubes with no turbidity were inoculated on Tryptic Soy Agar (TSA) plates, and incubated overnight at 37 °C in a static incubator.

Row | SMILES | Particle size D10 [1] | Particle size D50 [1] | Particle size D90 [1] | Particle size D99 [1] | Volume mean diameter (VMD) [1] | Particle size after ball milling relative to original size pre-ball mill ([1]; 15 min, 400 rpm, ball to powder ratio 8) | Change in particle size in time-trial stability study over 28 days ([1]; day 0, 1, 3, 7, 14, 28, ANOVA, P > 0.05) | Drug eliminated primarily through the renal route [2] | Oral bioavailability (absorbed orally) ([2]; oral route) | MLC [3]
1 | N[C@@H](CCC(=O)O)C(=O)O [Formulation G0, L-glutamic acid] | 6.97 μm | 22.56 μm | 48.37 μm | 70.49 μm | 25.45 µm |  |  |  |  | 
2 | N[C@@H](CCC(=O)O)C(=O)O [Formulation G1, L-glutamic acid] | 0.99 μm | 7.86 μm | 21.15 μm | 33.58 μm | 9.67 µm |  |  |  |  | 
3 | N[C@@H](CCC(=O)O)C(=O)O [Formulation G2, L-glutamic acid] | 0.54 μm | 1.62 μm | 5.46 μm | 8.31 μm | 2.35 µm | 4% | no significant change in size |  |  | 
4 | N[C@@H](CCC(=O)O)C(=O)O [Formulation G3, L-glutamic acid] | 0.64 μm | 3.08 μm | 11.63 μm | 17.01 μm | 4.75 µm |  |  |  |  | 
5 | CN[C@H](CC(C)C)C(=O)N[C@H]1C(=O)N[C@@H](CC(N)=O)C(=O)N[C@H]2C(=O)N[C@H]3C(=O)N[C@H](C(=O)N[C@H](C(=O)O)c4cc(O)cc(O)c4-c4cc3ccc4O)[C@H](O)c3ccc(c(Cl)c3)Oc3cc2cc(c3O[C@@H]2O[C@H](CO)[C@@H](O)[C@H](O)[C@H]2O[C@H]2C[C@](C)(N)[C@H](O)[C@H](C)O2)Oc2ccc(cc2Cl)[C@H]1O [vancomycin] |  |  |  |  | 51.64 µm |  |  | 80–90% | less than 10% | 6.25 µg/mL (≈ 4.31 µM)
